From the pKa sets of Baltruschat and Czodrowski (2020) come the findings set out here.

As a reminder, the pKa is the negative logarithm of the acid dissociation constant. The low end stands for a stronger acid or weaker base, the high end for a weaker acid or stronger base. On to `O=Cc1ccccc1C(=O)O`, for which the pKa (acidic group) was found to be 4.56.

Consider `[O-]c1cccc(O)c1`, for which the pKa (acidic group) was 11.3.

Take `Nc1cc([N+](=O)[O-])cc2ccccc12`: the pKa (basic group) was determined as 2.24.

The compound `C1CCC2NCCCC2C1` (stereo unspecified) showed a pKa (basic group) of 10.9. Take `Nc1ccnc2c1ncn2CCOCP(=O)([O-])O`: for the setting “basic group”, the pKa was 5.52. The same measure, in the same setting: under `N/C(Cc1ccccc1)=N\O` stands 5.32. For the setting “acidic group”, `Cn1c[nH+]c(C(=O)O)c1C(=O)O` came in with a pKa of -0.88. Take `O=C([O-])c1ccncc1`: the pKa (basic group) turned out to be 4.9. Where the note is “acidic group”, `Oc1cccc2cccc(O)c12` yielded a pKa of 6.71. On the same count and under the same terms, under `[NH3+]CCCCCCC#CC#CCCC(=O)O` stands 4.21. Consider `Nc1ccc2ncccc2c1`, for which the pKa (basic group) stood at 5.63. Same read-out and setting: next, `C[C@H]1CCC2CC[C@H](C)N21`: 11.7; `CC(C)N/C=N/c1ccc(-c2cn(C)cn2)cc1`: 8.99. With `C/C(=N/c1ccccc1O)c1ccccc1O`, the pKa reads like this: (acidic group) 9.23; (basic group) 5.14. The compound `CC(=O)OC1CN2CCC1CC2` (stereo unspecified) returned a pKa (basic group) of 9.27. Consider `CCOC(=O)c1ccc(CCN)cc1`, for which the pKa (basic group) amounted to 9.58. Compound `NC(=O)/C(=N\O)c1ccccc1` came in with a pKa (acidic group) of 10.1.

`CCCOC(=O)c1ccc(O)cc1` gave a pKa (acidic group) of 8.3. Consider `Cn1cc2ccccc2n1`, for which, where the note is “basic group”, the pKa was 2.13. Still for that read-out and setting: under `Cc1n[nH]c2ccc(N)cc12` stands 5.25; under `CCN(CC)CCCC(C)Nc1ccnc2cc(Br)ccc12` (stereo unspecified), 10.2.

`COc1ccccc(=O)c1O` had a pKa (acidic group) of 8. Under “basic group”, `Cn1ncc2c(NCCO)ncnc21` displayed a pKa of 3.86. For the compound `CC1[C@H](N)[C@H]1[NH3+]` (stereo partly specified), the pKa (basic group) came out at 5.9. `OCC(S)C[S-]` (stereo unspecified) yielded a pKa (acidic group) of 10.6. For the compound `Cc1ccc(NC(=S)c2ccccc2)cc1`, the pKa (acidic group) turned out to be 10.8. Take `C=CCN(CC=C)CCOC(=O)C(=C)C`: the pKa (basic group) is 7.02. On the same count and under the same terms, next, `Cc1cc(-c2ccccc2)nn2ccnc12`: 4.84. Under “acidic group”, `O=C(O)c1cccc(-c2nnn[nH]2)c1` came in with a pKa of 3.74.

On to `c1cc2[nH]cnc2cn1`, for which the pKa was found to be 10.9 (acidic group) and 6.1 (basic group).

As to `Oc1ccc2cccc(-c3ccccc3)c2c1`, under “acidic group”, the pKa is 9.38. For `CC[NH+](CC)CCNc1ccnc2ccccc12`, the pKa (basic group) is 8. `COc1cc(C(N)=O)ccc1-c1nc2c(ncn2C)[nH]1`: the pKa amounted to 11.7 (acidic group) and 3.8 (basic group). For the compound `CCCCSC1=NCCN1`, where the note is “basic group”, the pKa is 9. Still for that read-out and setting: next, `Nc1nccc(-c2csc(N)n2)n1`: 4. With `C=C(OC)C(=O)O`, the pKa (acidic group) turned out to be 3.38. For `Oc1ccc2[nH]cnc2c1`, the pKa runs as follows: (acidic group) 10; (basic group) 5.69.

For the setting “acidic group”, `O=C([O-])C1(C(=O)O)CCCC1` returned a pKa of 6.08. Same read-out and setting: under `O=C(O)[C@@H](O)Cc1c[nH]c[nH+]1` stands 2.99; under `CC(C)[NH2+]CC(=O)c1ccc(O)cc1`, 7.56.

With `O=C([O-])CSc1nc2cc3ccccc3cc2[nH]1`, the pKa (basic group) worked out at 4.68. Still for that read-out and setting: next, `CC(C)CC(N)C(=O)[O-]` (stereo unspecified): 9.76. Still for that read-out and setting: under `COc1ccc(C2CCCN2C)cc1` (stereo unspecified) stands 8.9. For `Cc1nc2c(n1C)C(=O)c1nc[nH+]c(O)c1C2=O`, the pKa (acidic group) was found to be 1.15. Take `CCCNCC(=O)O`: the pKa (basic group) was 10.

In turn, `Nc1ccc2nnccc2c1` yielded a pKa (basic group) of 5.04.

In the case of `C1CN(CC[NH+]2CCOCC2)CCO1`, the pKa (basic group) is 3.63. Where the note is “basic group”, `CN1C[C@@H](C(=O)[O-])C[C@@]2(O)c3cccc4[nH]cc(c34)C[C@H]12` showed a pKa of 9. In turn, `[NH3+]CC(=O)O` displayed a pKa (acidic group) of 2.36. Same read-out and setting: next, `CC(=O)[n+]1cccc(Cl)c1`: 2.98.

As for `CN(C)c1ncnc2[nH]ncc12`, the pKa runs as follows: (acidic group) 11; (basic group) 4.53. `C=C(C)[C@@H]1CN[C@H](C(=O)[O-])[C@@H]1CC(=O)[O-]` had a pKa (basic group) of 10.2. On the same count and under the same terms, under `Cc1c2ccncc2cc2c1[nH]c1ccncc12` stands 7.5. Where the note is “basic group”, `CN1CCCC1c1ccccc1` (stereo unspecified) showed a pKa of 8.8. `Oc1cccc2nccnc12`: the pKa by setting is: (acidic group) 8.8; (basic group) 0.85.

In turn, `c1coc(-c2ccncc2)c1` displayed a pKa (basic group) of 5.6.

The compound `C=CC(=O)O` displayed a pKa (acidic group) of 4.25.

Compound `CC(=O)N(C)c1ccccn1` returned a pKa (basic group) of 2.01. `CC(=O)C1=CC=CC1` came in with a pKa (acidic group) of 8.84. `NC(=O)CN(CC[NH+](CC(N)=O)Cc1ccccc1O)Cc1ccccc1O` gave a pKa (basic group) of 1.89. Take `Cc1ncc2nc(C)c(C)nc2n1`: the pKa (basic group) was 3.76.

Compound `C[C@H]1CC[C@H](C(=O)O)CC1` gave a pKa (acidic group) of 4.89. `CCN(C#N)CC` had a pKa (basic group) of -2. With `CCOc1cc(C)nc(-n2nc(C)cc2O)n1`, the pKa (acidic group) is 7.35.

Compound `O=C(O)[C@H]1O[C@H]1C(=O)[O-]` registered a pKa (acidic group) of 3.92.

In the case of `CCC(=O)O[C@@]1(c2ccccc2)CCN(C)C[C@H]1C`, the pKa (basic group) came to 8.66. On the same count and under the same terms, under `COc1ccc2c3c1O[C@H]1CCC[C@H]4[C@H](NCC[C@]314)[C@@H]2O` stands 9.17. Consider `CCOCCNc1cccc(C)c1`, for which, under “basic group”, the pKa was found to be 4.24. Under “acidic group”, `C[NH+](C)CCCCCCCCCCNC(=O)/C=N/O` came in with a pKa of 9.02.

`NS(=O)(=O)c1cccc(Cl)c1` displayed a pKa (acidic group) of 9.04. In the case of `O=CN1CCNCC1`, under “basic group”, the pKa was determined as 7.98.

`NCC/C(N)=N/O`: the pKa (basic group) stood at 9.15. Consider `CC(C)[NH2+]CC(=O)O`, for which, where the note is “acidic group”, the pKa stood at 2.35. `CCN(CC)CCN` showed a pKa (basic group) of 9.93. Where the note is “acidic group”, `CC(=O)Oc1cccc2cccc(O)c12` registered a pKa of 9.69. On the same count and under the same terms, under `CC(=O)[C@@H]1C[C@H](C(=O)O)C1(C)C` stands 4.63.

On to `CCCCCCCCCC[NH2+]CCC(=O)O`, for which the pKa (acidic group) amounted to 3.57. Turning to `O=C(O)c1ccc(I)o1`, for the setting “acidic group”, the pKa amounted to 2.94. Same read-out and setting: under `Cc1cccnc1/C=N/O` stands 10.5. In turn, `Cc1cccc(CO)n1` returned a pKa (basic group) of 5.2. For the compound `C=CCSS/C(CCO)=C(/C)N(C=O)Cc1cnc(C)nc1N`, the pKa (basic group) is 5.65. On to `Nc1ccc(F)cc1`, for which the pKa (basic group) stood at 4.64. `OCCNc1ccccc1` yielded a pKa (basic group) of 4.09. In the case of `C#CC(C)(C)NC(C)(C)C#C`, under “basic group”, the pKa is 6.45. `N#Cc1ccc(CC(C#N)C#N)cc1`: the pKa (acidic group) turned out to be 11. Same read-out and setting: under `O=C(O)[C@@H]1CCCC[C@@H]1O` stands 4.8. Compound `CCC(=O)c1ccccc1` showed a pKa (basic group) of 17.6.

Turning to `COc1ccc(CCN)cc1OC`, the pKa (basic group) stood at 9.87. As for `CC(=O)NOC(C)=O`, the pKa (acidic group) came to 6.81. Compound `CC(C)(C)CN` returned a pKa (basic group) of 10.2. Still for that read-out and setting: under `c1ccc(-c2ncc[nH]2)nc1` stands 5.46; under `O=C([O-])C1CCNC1` (stereo unspecified), 10.7. On the same count and under the same terms, next, `C#C[C@]1(O)C[C@@H](C)N(C)[C@H]2CCCC[C@@H]21`: 8.99. For the setting “acidic group”, `O=C(O)c1cc2cc(Cn3cc[nH+]c3)ccc2o1` gave a pKa of 2.38. `Cc1cc[nH]n1` registered a pKa (basic group) of 3.66.

Consider `O=C(O)CSC(c1ccccc1)(c1ccccc1)c1ccccc1`, for which the pKa (acidic group) stood at 4.32.

Regarding `C1CCN2C[C@@H]3C[C@@H](CN4CCCC[C@@H]34)[C@H]2C1`, the pKa (basic group) turned out to be 11.3. `OCCCNc1nc(NCCCO)nc(NCCCO)n1` had a pKa (basic group) of 5.48. In turn, `NNCCOc1ccccc1` gave a pKa (basic group) of 6.8.

On to `Nc1cc(Cl)cc(C[NH3+])c1`, for which, under “basic group”, the pKa amounted to 3.54.
